Results taken from US11613546B2, “Substituted pyridotriazine compounds and uses thereof” (Gilead Sciences, Inc., priority 2021, dated 2023).
Read-outs that look alike come from different tables or passages of the source.

Experiments:
Type in all cases: cell-based
HIV-1 (IIIB) = test: Antiviral assay in MT-4 cells; conditions: Human immunodeficiency virus 1, IIIB, MT4, 120 h, HIV-1 IIIB infected MT-4 cells, 5 days, Cell Titer Glo; read-out: MT4 EC50
Experimental: Antiviral Assay in MT-4 Cells
(§1) Compounds were tested in a high-throughput 384-well assay format for their ability to inhibit the replication of HIV-1 (IIIB) in MT-4 cells. Compounds were serially diluted (1:3) in DMSO on 384-well polypropylene plates and further diluted 200-fold into complete RPMI media (10% FBS, 1% P/S) using the Biotek Micro Flow and Labcyte ECHO acoustic dispenser. Each plate contained up to 8 test compounds, with negative (No Drug Control) and 5 μM AZT positive controls. MT-4 cells were pre-infected with 10 μL of either RPMI (mock-infected) or a fresh 1:250 dilution of HIV-1 IIIB concentrated virus stock. Infected and uninfected MT-4 cells were further diluted in complete RPMI media and added to each plate using a Micro Flow dispenser. After 5 days incubation in a humidified and temperature controlled incubator (37° C.), Cell Titer Glo (Promega) was added to the assay plates and chemiluminescence read using an Envision plate-reader. EC50 values were defined as the compound concentration that causes a 50% decrease in luminescence signal, and were calculated using a sigmoidal dose-response model to generate curve fits.

[1] = Cytotoxicity assay in MT-4 cells; conditions: human
Experimental: as §1, with “fits. Cytotoxicity Assay in MT-4 Cells Assays were performed as above except uninfected MT-4 cells were added to each well containing test compound. In addition, 10 μM puromycin was added to the last column of each assay plate to assess a base level of cytotoxicity.” for “fits.”

pLai RLuc reporter virus = test: HIV MT-4 serum shift antiviral reporter assay; conditions: Human immunodeficiency virus 1, 72 h
Experimental: To quantify the amount of protein binding to human serum, compounds were serially diluted (1:3) in DMSO and acoustically transferred onto 384-well assay plates via a Labcyte ECHO robot. Each plate contained up to 8 test compounds, including negative and positive controls, (DMSO, 5 μM AZT respectively). Assay plates were prepared in duplicate, and tested in either CCM (cell culture media) or HS/CCM (human serum/cell culture media). MT-4 cells were first pre-infected with pLai RLuc reporter virus for 2 h at 37° C., then further diluted in either CCM (RPMI media, 10% FBS, 1% P/S) or HS/CCM (RPMI media, 10% FBS, 50% HS, 1% P/S), and subsequently added to each plate using a Biotek Micro Flow dispenser. After a 72-h incubation in a humidified and temperature controlled incubator (37° C.), Renilla Glo (Promega) was added to all assay plates and chemiluminescence read using an Envision plate-reader. EC50 values were defined as the compound concentration that causes a 50% decrease in luminescence signal, and were calculated using a sigmoidal dose-response model to generate curve fits. To determine the amount of protein binding, EC50 fold shifts (or EC50 shifts) were calculated by dividing EC50 (HS/CCM)/EC50 (CCM).

[2] = uninfected MT-4 cells, 5 days, Cell Titer Glo, read-out: CC50
[3] = read-out: RLUC 50% HS (nM), HS/CCM: 50% human serum, 72 h, Renilla Glo
[4] = read-out: RLUC CCM (nM), cell culture media (RPMI, 10% FBS), 72 h, Renilla Glo

| Compound | EC50 (HIV-1 (IIIB)) | CC50 at 5 days [1, 2] | EC50 (pLai RLuc reporter virus; [3]) | EC50 (pLai RLuc reporter virus; [4]) | CC50 at 5 days ([1]; CC50 (nM)) |
| --- | --- | --- | --- | --- | --- |
| C[C@H]1CC[C@@H](CF)N2CN1C(=O)c1c(O)c(=O)c(C(=O)NCc3ccc(F)cc3F)cn12 [Example C45, (1S,2S,5S)—N-(2,4-difluorobenzyl)-2-(fluoromethyl)-8-hydroxy-5-methyl-7,9-dioxo-2,3,4,5,7,9-hexahydro-1,6-methanopyrido[1,2-b][1,2,5]triazonine-10-carboxamide] | 1.8 nM | 11000 nM | – | – | – |
| O=C(NCc1c(F)cc(F)cc1F)c1cn2c(c(O)c1=O)C(=O)N1CCCCN2C1Cc1ccccc1 (stereo not drawn) [Example C6, 13-benzyl-8-hydroxy-7,9-dioxo-N-(2,4,6-trifluorobenzyl)-2,3,4,5,7,9-hexahydro-1,6-methanopyrido[1,2-b][1,2,5]triazonine-10-carboxamide] | 7.5 nM | 9880 nM | 23.1 nM | 3.5 nM | – |
| CC[C@@H]1CC[C@H](C)N2CN1n1cc(C(=O)NCc3c(F)cc(F)cc3F)c(=O)c(O)c1C2=O [Example C73, (1S,2R,5S)-2-ethyl-8-hydroxy-5-methyl-7,9-dioxo-N-(2,4,6-trifluorobenzyl)-2,3,4,5,7,9-hexahydro-1,6-methanopyrido[1,2-b][1,2,5]triazonine-10-carboxamide] | 0.8 nM | 7640 nM | 276 nM | 0.63 nM | – |
| C[C@H]1C=CCN2CN1C(=O)c1c(O)c(=O)c(C(=O)NCc3c(F)cc(F)cc3F)cn12 [Example C5, (10S)-6-hydroxy-10-methyl-5,8-dioxo-N-[(2,4,6-trifluorophenyl)methyl]-1,2,9-triazatricyclo[7.4.1.02,7]tetradeca-3,6,11-triene-4-carboxamide] | 3.4 nM | 14200 nM | 40.4 nM | 0.42 nM | – |
| C[C@@H]1C/C=C\CN2CN1n1cc(C(=O)NCc3c(F)cc(F)cc3F)c(=O)c(O)c1C2=O [Example C16, (1S,2R,Z)-9-hydroxy-2-methyl-8,10-dioxo-N-(2,4,6-trifluorobenzyl)-3,6,8,10-tetrahydro-2H-1,7-methanopyrido[1,2-b][1,2,5]triazecine-11-carboxamide] | 1.1 nM | 11400 nM | 19.4 nM | 0.32 nM | – |
| C[C@@H]1C[C@@H](F)[C@H](C)N2CN1n1cc(C(=O)NCc3ccc(F)cc3F)c(=O)c(O)c1C2=O [Example C53, (1S,2R,4R,5S)—N-(2,4-difluorobenzyl)-4-fluoro-8-hydroxy-2,5-dimethyl-7,9-dioxo-2,3,4,5,7,9-hexahydro-1,6-methanopyrido[1,2-b][1,2,5]triazonine-10-carboxamide] | 1.3 nM | 9010 nM | 350 nM | 0.55 nM | – |
| C[C@H]1CCC(C)(C)N2CN1C(=O)c1c(O)c(=O)c(C(=O)NCc3c(F)cc(F)cc3F)cn12 [Example C87, (1S,5S)-8-hydroxy-2,2,5-trimethyl-7,9-dioxo-N-(2,4,6-trifluorobenzyl)-2,3,4,5,7,9-hexahydro-1,6-methanopyrido[1,2-b][1,2,5]triazonine-10-carboxamide] | – | – | 198 nM | 0.68 nM | – |
| C[C@@H]1C[C@H](F)[C@H](C)N2CN1n1cc(C(=O)NCc3c(F)cc(F)cc3F)c(=O)c(O)c1C2=O [Example C34, (1S,2R,4S,5S)-4-fluoro-8-hydroxy-2,5-dimethyl-7,9-dioxo-N-(2,4,6-trifluorobenzyl)-2,3,4,5,7,9-hexahydro-1,6-methanopyrido[1,2-b][1,2,5]triazonine-10-carboxamide] | 1.4 nM | 8360 nM | 938 nM | 0.59 nM | – |
| CCC1N2C(=O)c3c(O)c(=O)c(C(=O)NCc4c(F)cc(F)cc4F)cn3N1[C@H](C)C=C[C@@H]2C (stereo partly drawn) [Example C101, (1S,2R,5S)-13-ethyl-8-hydroxy-2,5-dimethyl-7,9-dioxo-N-(2,4,6-trifluorobenzyl)-2,5,7,9-tetrahydro-1,6-methanopyrido[1,2-b][1,2,5]triazonine-10-carboxamide] | 19.7 nM | 33500 nM | – | – | – |
| CO[C@@H]1[C@H](OC)[C@@H](C)N2CN(C(=O)c3c(O)c(=O)c(C(=O)NCc4c(F)cc(F)cc4F)cn32)[C@H]1C [Example C32, (1S,2R,3R,4S,5S)-8-hydroxy-3,4-dimethoxy-2,5-dimethyl-7,9-dioxo-N-(2,4,6-trifluorobenzyl)-2,3,4,5,7,9-hexahydro-1,6-methanopyrido[1,2-b][1,2,5]triazonine-10-carboxamide] | 2.4 nM | 28000 nM | 1.04 nM | 0.55 nM | – |
| CO[C@@H]1C[C@@H](C)N2CN(C(=O)c3c(O)c(=O)c(C(=O)NCc4c(F)cc(F)cc4F)cn32)[C@H]1C [Example C33, (1S,2R,4R,5S)-8-hydroxy-4-methoxy-2,5-dimethyl-7,9-dioxo-N-(2,4,6-trifluorobenzyl)-2,3,4,5,7,9-hexahydro-1,6-methanopyrido[1,2-b][1,2,5]triazonine-10-carboxamide] | 4 nM | 32900 nM | 4.3 nM | 1.8 nM | – |
| C[C@@H]1C=CCN2CN1n1cc(C(=O)NCc3c(F)cc(F)cc3F)c(=O)c(O)c1C2=O [Example C70, (1S,2R)-8-hydroxy-2-methyl-7,9-dioxo-N-(2,4,6-trifluorobenzyl)-2,5,7,9-tetrahydro-1,6-methanopyrido[1,2-b][1,2,5]triazonine-10-carboxamide] | 1.2 nM | 11600 nM | 11.5 nM | 0.54 nM | – |
| C[C@@H]1CCCCN2CN1n1cc(C(=O)NCc3c(F)cc(F)cc3F)c(=O)c(O)c1C2=O [Example C17, (1S,2R)-9-hydroxy-2-methyl-8,10-dioxo-N-(2,4,6-trifluorobenzyl)-3,4,5,6,8,10-hexahydro-2H-1,7-methanopyrido[1,2-b][1,2,5]triazecine-11-carboxamide] | 0.91 nM | 11200 nM | 7.12 nM | 0.16 nM | – |
| C[C@H]1C=CC2(COC(C)(C)C2)N2CN1C(=O)c1c(O)c(=O)c(C(=O)NCc3c(F)cc(F)cc3F)cn12 (stereo partly drawn) [Example C9, (1′S,5′S)-8′-hydroxy-5,5,5′-trimethyl-7′,9′-dioxo-N-(2,4,6-trifluorobenzyl)-4,5,7′,9′-tetrahydro-2H,5′H-spiro[furan-3,2′-[1,6]methanopyrido[1,2-b][1,2,5]triazonine]-10′-carboxamide] | – | – | – | – | 25300 nM |
| CC1N2C(=O)c3c(O)c(=O)c(C(=O)NCc4c(F)cc(F)cc4F)cn3N1[C@H](C)C=C[C@@H]2C (stereo partly drawn) [Example C100, (1S,2R,5S)-8-hydroxy-2,5,13-trimethyl-7,9-dioxo-N-(2,4,6-trifluorobenzyl)-2,5,7,9-tetrahydro-1,6-methanopyrido[1,2-b][1,2,5]triazonine-10-carboxamide] | 0.8 nM | 16200 nM | – | – | – |
| C[C@@H]1CCC[C@@H](C)N2CN1C(=O)c1c(O)c(=O)c(C(=O)NCc3c(F)cc(F)cc3F)cn12 [Example C22, (1S,2R,6R)-9-hydroxy-2,6-dimethyl-8,10-dioxo-N-(2,4,6-trifluorobenzyl)-3,4,5,6,8,10-hexahydro-2H-1,7-methanopyrido[1,2-b][1,2,5]triazecine-11-carboxamide] | 2.2 nM | 16300 nM | – | – | – |
